Experimental data taken from ChEMBL document CHEMBL1153899, “Discovery of benzothiazole derivatives as efficacious and enterocyte-specific MTP inhibitors” (Bioorg Med Chem Lett, 2009).

Assays:
HepG2 = experiment: Inhibition of apoB secretion in human HepG2 cells after 40 hrs by ELISA; format: functional, cell-based; settings: HepG2, 40 h
[1] = Inhibition of MTP from dog liver microsomes by scintillation counting; set-up: species or system Canis lupus familiaris, Microsome

Structure (SMILES)	IC50 (HepG2) [nM]	IC50 [1] [nM]
CN(Cc1ccc(F)cc1)C(=O)[C@@H](NC(=O)c1nc2ccc(NC(=O)c3ccccc3-c3ccc(C(F)(F)F)cc3)cc2s1)c1ccccc1	17.3	
CCCCCNC(=O)[C@@H](NC(=O)c1nc2ccc(NC(=O)c3ccccc3-c3ccc(C(C)(C)C)cc3)cc2s1)c1ccccc1	3.1	8.4
